Measured values published in PubChem BioAssay (NCI).
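GI50 marks 50% less growth. Definition used: TGI = concentration required for complete inhibition of growth.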

How the values were obtained:
Assay in all cases: NCI anticancer screen, dose series, 384-well format
[1] = system: A549 NSCLC
[2] = system: KM12 colon
[3] = system: M14 melanoma
[4] = system: SK-MEL-28 melanoma
[5] = system: SR leukemia
[6] = system: HCT-116 colon
[7] = system: COLO 205 colon
[8] = system: CAKI-1 renal
[9] = system: DU-145 prostate
[10] = system: SF-268 CNS
[11] = system: SK-MEL-5 melanoma
[12] = system: LOX IMVI melanoma
[13] = system: SF-539 CNS
[14] = system: IGROV1 ovarian
[15] = system: NCI-H460 NSCLC
[16] = system: OVCAR-4 ovarian
[17] = system: MOLT-4 leukemia
[18] = system: OVCAR-8 ovarian
[19] = system: NCI-H23 lung
[20] = system: SN12C renal
[21] = system: RXF 393 renal
[22] = system: HT29 colon
[23] = system: HOP-62 NSCLC
[24] = system: MDA-MB-231 breast
[25] = system: EKVX NSCLC
[26] = system: OVCAR-5 ovarian
[27] = system: SNB-19 CNS
[28] = system: ACHN renal
[29] = system: HL-60(TB) leukemia
[30] = system: TK-10 renal
[31] = system: PC-3 prostate
[32] = system: T-47D breast
[33] = system: UACC-62 melanoma
[34] = system: HCT-15 colon
[35] = system: UO-31 renal
[36] = system: NCI-H522 lung
[37] = system: HCC-2998 colon
[38] = system: MALME-3M melanoma
[39] = system: NCI-H322M lung
[40] = system: HS 578T breast
[41] = system: U251 glioblastoma
[42] = system: MDA-MB-435 melanoma
[43] = system: A498 renal
[44] = system: SNB-75 CNS
[45] = system: MDA-MB-468 breast
[46] = system: SF-295 CNS
[47] = system: MCF7 breast
[48] = system: 786-0 renal
[49] = system: NCI-H226 lung
[50] = system: UACC-257 melanoma
[51] = system: HOP-92 NSCLC
[52] = system: RPMI-8226 leukemia
[53] = system: OVCAR-3 ovarian
[54] = system: NCI/ADR-RES ovarian
[55] = system: SK-OV-3 ovarian
[56] = system: SW-620 colon
[57] = system: BT-549 breast

C[C@]12CC[C@@H]3c4ccc(OC(=O)N(CCCl)CCCl)cc4CC[C@H]3[C@@H]1CC[C@@H]2OP(=O)(O)O
GI50 [1]: > 100 µM
TGI [1]: > 100 µM
GI50 [2]: > 100 µM
TGI [2]: > 100 µM
GI50 [3]: > 100 µM
TGI [3]: > 100 µM
GI50 [4]: > 100 µM
TGI [4]: > 100 µM
GI50 [5]: > 100 µM
TGI [5]: > 100 µM
GI50 [6]: > 100 µM
TGI [6]: > 100 µM
GI50 [7]: > 100 µM
TGI [7]: > 100 µM
GI50 [8]: > 100 µM
TGI [8]: > 100 µM
GI50 [9]: > 100 µM
TGI [9]: > 100 µM
GI50 [10]: > 100 µM
TGI [10]: > 100 µM
GI50 [11]: > 100 µM
TGI [11]: > 100 µM
GI50 [12]: > 100 µM
TGI [12]: > 100 µM
GI50 [13]: > 100 µM
TGI [13]: > 100 µM
GI50 [14]: > 100 µM
TGI [14]: > 100 µM
GI50 [15]: > 100 µM
TGI [15]: > 100 µM
GI50 [16]: > 100 µM
TGI [16]: > 100 µM
GI50 [17]: > 100 µM
TGI [17]: > 100 µM
GI50 [18]: > 100 µM
TGI [18]: > 100 µM
GI50 [19]: > 100 µM
TGI [19]: > 100 µM
GI50 [20]: > 100 µM
TGI [20]: > 100 µM
GI50 [21]: 47.7 µM
TGI [21]: > 100 µM
GI50 [22]: > 100 µM
TGI [22]: > 100 µM
GI50 [23]: > 100 µM
TGI [23]: > 100 µM
GI50 [24]: > 100 µM
TGI [24]: > 100 µM
GI50 [25]: > 100 µM
TGI [25]: > 100 µM
GI50 [26]: > 100 µM
TGI [26]: > 100 µM
GI50 [27]: > 100 µM
TGI [27]: > 100 µM
GI50 [28]: > 100 µM
TGI [28]: > 100 µM
GI50 [29]: > 100 µM
TGI [29]: > 100 µM
GI50 [30]: > 100 µM
TGI [30]: > 100 µM
GI50 [31]: > 100 µM
TGI [31]: > 100 µM
GI50 [32]: > 100 µM
TGI [32]: > 100 µM
GI50 [33]: > 100 µM
TGI [33]: > 100 µM
GI50 [34]: > 100 µM
TGI [34]: > 100 µM
GI50 [35]: > 100 µM
TGI [35]: > 100 µM
GI50 [36]: > 100 µM
TGI [36]: > 100 µM
GI50 [37]: > 100 µM
TGI [37]: > 100 µM
GI50 [38]: > 100 µM
TGI [38]: > 100 µM
GI50 [39]: > 100 µM
TGI [39]: > 100 µM
GI50 [40]: > 100 µM
TGI [40]: > 100 µM
GI50 [41]: > 100 µM
TGI [41]: > 100 µM
GI50 [42]: 41.2 µM
TGI [42]: > 100 µM
GI50 [43]: > 100 µM
TGI [43]: > 100 µM
GI50 [44]: > 100 µM
TGI [44]: > 100 µM
GI50 [45]: > 100 µM
TGI [45]: > 100 µM
GI50 [46]: > 100 µM
TGI [46]: > 100 µM
GI50 [47]: > 100 µM
TGI [47]: > 100 µM
GI50 [48]: > 100 µM
TGI [48]: > 100 µM
GI50 [49]: > 100 µM
TGI [49]: > 100 µM
GI50 [50]: > 100 µM
TGI [50]: > 100 µM
GI50 [51]: > 100 µM
TGI [51]: > 100 µM
GI50 [52]: > 100 µM
TGI [52]: > 100 µM
GI50 [53]: > 100 µM
TGI [53]: > 100 µM
GI50 [54]: > 100 µM
TGI [54]: > 100 µM
GI50 [55]: > 100 µM
TGI [55]: > 100 µM
GI50 [56]: > 100 µM
TGI [56]: > 100 µM
GI50 [57]: 25 µM
TGI [57]: > 100 µM

NC1(C(=O)N[C@@H](CCO)c2ccc(Cl)cc2)CCN(c2ncnc3[nH]ccc23)CC1
GI50 [1]: 19.7 µM
TGI [1]: > 100 µM
GI50 [2]: 1.08 µM
TGI [2]: > 100 µM
GI50 [3]: 6.69 µM
TGI [3]: 27.6 µM
GI50 [4]: 4.49 µM
TGI [4]: > 100 µM
GI50 [5]: 1.07 µM
TGI [5]: 4.49 µM
GI50 [6]: 10.6 µM
TGI [6]: > 100 µM
GI50 [7]: 5.9 µM
TGI [7]: 73.6 µM
GI50 [8]: 10.9 µM
TGI [8]: > 100 µM
GI50 [9]: 22.6 µM
TGI [9]: > 100 µM
GI50 [10]: 23.8 µM
TGI [10]: > 100 µM
GI50 [11]: 10 µM
TGI [11]: 29.6 µM
GI50 [12]: 22.4 µM
TGI [12]: > 100 µM
GI50 [13]: 0.41 µM
TGI [13]: 57.7 µM
GI50 [14]: 0.121 µM
TGI [14]: 2.09 µM
GI50 [15]: 0.631 µM
TGI [15]: 25.2 µM
GI50 [16]: 88.3 µM
TGI [16]: > 100 µM
GI50 [17]: 0.453 µM
TGI [17]: 1.88 µM
GI50 [18]: 26.4 µM
TGI [18]: > 100 µM
GI50 [19]: 15 µM
TGI [19]: 65.8 µM
GI50 [20]: 0.815 µM
TGI [20]: 25.5 µM
GI50 [21]: 1.2 µM
TGI [21]: 44 µM
GI50 [22]: 4.22 µM
TGI [22]: > 100 µM
GI50 [23]: 21.1 µM
TGI [23]: > 100 µM
GI50 [24]: 84.9 µM
TGI [24]: > 100 µM
GI50 [25]: 5.28 µM
TGI [25]: > 100 µM
GI50 [26]: 21.9 µM
TGI [26]: 96.1 µM
GI50 [27]: 18.8 µM
TGI [27]: > 100 µM
GI50 [28]: 13.1 µM
TGI [28]: > 100 µM
GI50 [29]: 12.7 µM
TGI [29]: 25.9 µM
GI50 [30]: 3.3 µM
TGI [30]: > 100 µM
GI50 [31]: 0.629 µM
TGI [31]: > 100 µM
GI50 [32]: 0.423 µM
TGI [32]: > 100 µM
GI50 [33]: 2.2 µM
TGI [33]: 18.6 µM
GI50 [34]: 14.7 µM
TGI [34]: > 100 µM
GI50 [36]: 9.74 µM
TGI [36]: 24.2 µM
GI50 [37]: 2.61 µM
TGI [37]: > 100 µM
GI50 [38]: 2.43 µM
TGI [38]: 15.3 µM
GI50 [39]: 16.2 µM
TGI [39]: > 100 µM
GI50 [40]: 0.6 µM
TGI [40]: 47 µM
GI50 [41]: 5.38 µM
TGI [41]: > 100 µM
GI50 [42]: 6.05 µM
TGI [42]: 87.8 µM
GI50 [43]: 0.394 µM
TGI [43]: 26.7 µM
GI50 [44]: 0.366 µM
TGI [44]: 35.8 µM
GI50 [45]: 0.279 µM
TGI [45]: 14.7 µM
GI50 [46]: 1.14 µM
TGI [46]: 17 µM
GI50 [47]: 0.437 µM
TGI [47]: > 100 µM
GI50 [49]: 13 µM
TGI [49]: 78.6 µM
GI50 [50]: 4.55 µM
TGI [50]: 25.7 µM
GI50 [51]: > 100 µM
TGI [51]: > 100 µM
GI50 [52]: 21.5 µM
TGI [52]: 84 µM
GI50 [53]: 23.3 µM
TGI [53]: > 100 µM
GI50 [54]: > 100 µM
TGI [54]: > 100 µM
GI50 [55]: 1.02 µM
TGI [55]: > 100 µM
GI50 [57]: 0.863 µM
TGI [57]: 18.9 µM
